This note sets out measurements from patent US10183944B2 (Asana Biosciences, LLC, priority 2011, dated 2019).

Like-named read-outs stand apart in the source and are kept apart here. Bounds are passed on as bounds.

Assay [1] addresses Syk (356-635 amino acids) catalytic domain (Homo sapiens (Human), UniProt P43405). The assay can be described thus: Inhibition of enzymatic Syk kinase activity (radiometric). In kind it is biochemical. The following applies: read-out: IC50 Syk. A digest of the protocol: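 Radiometric filter-binding format: 32P transfer from γ-32P-ATP onto pG4T, scintillation-counted after acid washes of P81 paper. Syk kinase domain (356-635), 0.035–7.5 ng per reaction, was exposed to compound for 30 minutes at room temperature before a 10-minute, 30° C. reaction with ATP (100 μM stock). Inhibition derived from counts with versus without compound.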

Another assay has as its target JAK2 (Homo sapiens (Human), UniProt O60674). The assay is described as follows: Inhibition of enzymatic JAK2 kinase activity (TR-FRET). It is filed as biochemical. The conditions noted are these: read-out: IC50 JAK. A digest of the protocol: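 TR-FRET read-out (Eu antibody donor, Ulight poly Glu-Tyr acceptor, 665/615 nm ratio) after a 60 min RT kinase reaction with ATP, begun following 30 min compound–enzyme preincubation. Stopped by EDTA; inhibition expressed as 100 minus % activity of positive control.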

The subject of the next assay is RBL2H3 cells. The assay is described as follows: Degranulation assay: β-hexosaminidase release during immune complex mediated degranulation. The following applies: Rattus norvegicus, RBL-2H3; for inhibition at 1 µM: read-out: Degranulation % inhibition at 1 μM; for EC50: read-out: Degranulation EC50. It is filed as cell-based, rat. As for the experimental part:
The objective of this assay was to examine by Fluorescence method the effect of compounds on β-hexosaminidase release during immune complex mediated degranulation in RBL2H3 cells. Compounds were tested for their ability to inhibit the ability of this immune complex to mediate β-hexosaminidase release, in an enzyme assay with […] as substrate. […] Emission 460 nm). [table] [table] RBL2H3 cells were maintained in MEM complete media containing 10% FBS at 70%-80% confluence in a mammalian cell culture CO2 incubator with 5% CO2 at 37° C. 2×10^5 cells/well were plated in 1 mL of complete media and incubated for 5 hours for cell attachment. Complete media was replaced with 1 mL of serum free MEM media containing 1.2 μg/mL of anti-DNP rat IgE as sensitizing agent and further incubated overnight with 5% CO2 at 37° C. […] Cells were further stimulated with 5 μg/mL of DNP-BSA for 60 minutes. Plates were centrifuged for 5 minutes at 1000 rpm and 25 μL of culture supernatant was transferred from each assay well into a 96 well black coated plate. 25 μL β-NAG substrate was added to this mixture and incubated at room temperature for 30 minutes. The reaction was terminated with 100 μL of stop solution and fluorescence was monitored. (Excitation 355 nm; Emission 460 nm) See, Sanderson, (2010), Cellular Immunology, 262(1): 28-34 and Silverman, (2006) MCB, 26(5):1826-1838, which are incorporated herein by reference. The % release of β-Hexosaminidase for the test compound was calculated using the following formula: RBL2H3 cells were maintained in MEM complete media containing 10% FBS at 70-80% confluence in a mammalian cell culture CO2 incubator with 5% CO2 at 37° C. 5×10^4 cells/well were plated in 200 μL of complete media containing 0.3 μg/mL of anti-DNP rat IgE as sensitizing agent for 24 hours at 37° C. & 5% CO2. The following day, cells were washed twice with PIPES buffer for 10 minutes at 37° C. and replenished with serum free MEM media. Cells were treated with various concentrations of test compounds (in 0.5% DMSO) for 15 minutes at 37° C. and 5% CO2. The cells were further stimulated with 0.1 μg/mL of DNP-BSA for 45 minutes. The plates were spun for 5 minutes at 2000 rpm and 25 μL of culture supernatant was then transferred from each assay well into a 96 well black coated plate. […] β-NAG substrate was added and incubated at RT for 30 minutes. After incubation with substrate, 150 μL of stop solution was added and fluorescence was monitored. (Excitation 355 nm; Emission 460 nm). See, Yamamoto, JPET, 306(3):1174-1181 (2003) and Taylor, MCB, 15(8): 4149-4157 (1995), which are herein incorporated by reference. Release of β-hexosaminidase during the degranulation process by immune complex mediated FcεRI stimulation is through the SYK pathway. The % inhibition of β-hexosaminidase release by Syk inhibitor gives information with regard to its Syk inhibition potency.

Where [2] appears, read: Assay Protocol A (24 well format).
Setting [3] is: Assay Protocol B (96 well format).

Sequence of JAK2 (O60674 808-1132): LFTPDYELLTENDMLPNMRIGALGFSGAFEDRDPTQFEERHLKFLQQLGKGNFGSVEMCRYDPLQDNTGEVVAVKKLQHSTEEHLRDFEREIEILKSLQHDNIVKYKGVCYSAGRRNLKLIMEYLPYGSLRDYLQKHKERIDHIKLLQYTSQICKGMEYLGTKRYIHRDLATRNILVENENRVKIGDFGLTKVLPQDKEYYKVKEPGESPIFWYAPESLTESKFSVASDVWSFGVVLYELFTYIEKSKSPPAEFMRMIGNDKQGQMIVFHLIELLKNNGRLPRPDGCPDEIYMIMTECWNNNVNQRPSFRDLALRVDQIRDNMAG

For the compound `O=c1[nH]ncc2nc(-c3ccccc3)nc(Nc3ccc(N4CCOCC4)cc3)c12` [Example 1, 4-(4-morpholinophenylamino)-2-phenylpyrimido[5,4-d]pyridazin-5(6H)-one], the IC50 (in assay [1]; on JAK2) was below 50 nM each time. Also, the inhibition at 1 µM in the assay on RBL2H3 cells (setting [2]) came out at 85%.
In the case of `CCN1CCN(c2ccc(Nc3nc(-c4ccccc4)nc4cn[nH]c(=O)c34)cc2)CC1` [Example 5, 4-(4-(4-ethylpiperazin-1-yl)phenylamino)-2-phenylpyrimido[4,5-d]pyridazin-5(6H)-one], in assay [1], the IC50 is below 10 nM. Further, the IC50 at JAK2 is below 50 nM. Besides, in the assay on RBL2H3 cells (setting [2]), the inhibition at 1 µM was 100% and the EC50 came out at 39 nM.
For the compound `CCN1CCN(Cc2ccc(Nc3nc(-c4ccccc4)nc4cn[nH]c(=O)c34)cc2)CC1` [Example 6, 4-(4-((4-ethylpiperazin-1-yl)methyl)phenylamino)-2-phenylpyrimido[4,5-d]pyridazin-5(6H)-one], the IC50 (in assay [1]; at JAK2) was below 50 nM throughout. In addition, in the assay on RBL2H3 cells (setting [2]), the inhibition at 1 µM turned out to be 50%.
For `O=c1[nH]ncc2nc(-c3ccccc3)nc(Nc3ccc(N4CCNCC4)cc3)c12` [Example 8, 2-phenyl-4-(4-(piperazin-1-yl)phenylamino)pyrimido[4,5-d]pyridazin-5(6H)-one], the IC50 (in assay [1]; on JAK2) was below 10 nM throughout. Further, in the assay with RBL2H3 cells (setting [2]), the inhibition at 1 µM came to 98%.
Turning to `O=c1[nH]ncc2nc(-c3ccccc3)nc(Nc3ccc(N(CCO)CCO)cc3)c12` [Example 10, 4-(4-(bis(2-hydroxyethyl)amino)phenylamino)-2-phenylpyrimido[4,5-d]pyridazin-5(6H)-one], the IC50 is below 50 nM in assay [1] and below 100 nM at JAK2. In the assay with RBL2H3 cells (setting [2]), the inhibition at 1 µM amounted to 100%.
On to `N#CCC1CCN(c2nc(Nc3ccc(N4CCC5(CC4)CC5C(=O)O)cc3)c3c(=O)[nH]ncc3n2)CC1` (stereo not shown) [Example 66, 6-(4-((2-(4-(cyanomethyl)piperidin-1-yl)-5-oxo-5,6-dihydropyrimido[4,5-d]pyridazin-4-yl)amino)phenyl)-6-azaspiro[2.5]octane-1-carboxylic acid], for which the IC50 in assay [1] is below 50 nM. In the assay on RBL2H3 cells (setting [3]), the inhibition at 1 µM was found to be 75% and the EC50 stood at 352 nM.
Take `O=C(c1ccc(Nc2nc(N3CCCCCC3)nc3cn[nH]c(=O)c23)cc1)N1CCOCC1` [Example 68, 2-(azepan-1-yl)-4-((4-(morpholine-4-carbonyl)phenyl)amino)pyrimido[4,5-d]pyridazin-5(6H)-one]: the IC50 in assay [1] is below 100 nM. Also, in the assay with RBL2H3 cells (setting [3]), the inhibition at 1 µM was 100% and the EC50 is 1.2 nM.
Regarding `O=C(O)CC1CCN(c2ccc(Nc3nc(N4CCCCCC4)nc4cn[nH]c(=O)c34)cc2)CC1` [Example 69, 2-(1-(4-((2-(azepan-1-yl)-5-oxo-5,6-dihydropyrimido[4,5-d]pyridazin-4-yl)amino)phenyl)piperidin-4-yl)acetic acid], in assay [1], the IC50 is below 10 nM. For the same compound, in the assay with RBL2H3 cells (setting [3]), the inhibition at 1 µM was 100% and the EC50 turned out to be 31 nM.
On to `N#CCC1CCN(c2nc(Nc3ccc(OCCC4CCNCC4)cc3)c3c(=O)[nH]ncc3n2)CC1` [Example 169, 2-(1-(5-oxo-4-((4-(2-(piperidin-4-yl)ethoxy)phenyl)amino)-5,6-dihydropyrimido[4,5-d]pyridazin-2-yl)piperidin-4-yl)acetonitrile], for which, in assay [1], the IC50 was below 50 nM. In the assay on RBL2H3 cells (setting [3]), the inhibition at 1 µM amounted to 17% and the EC50 was 230 nM.
On to `CCN1CCN(CCc2ccc(Nc3nc(N4CCCCCC4)nc4cn[nH]c(=O)c34)cc2)CC1` [Example 209, 2-(azepan-1-yl)-4-((4-(2-(4-ethylpiperazin-1-yl)ethyl)phenyl)amino) pyrimido[4,5-d]pyridazin-5(6H)-one], for which the IC50 in assay [1] was below 10 nM. In addition, in the assay on RBL2H3 cells (setting [3]), the inhibition at 1 µM was 81% and the EC50 stood at 29 nM.
